The text below walks through data of ChEMBL document CHEMBL5537161, “Structure-Guided Design, Synthesis, and Antivirulence Assessment of Covalent Staphylococcus aureus Sortase A Inhibitors” (J Med Chem, 2024).

Data set [1] addresses T1, Sortase A (Staphylococcus aureus, UniProt Q9S446, N24DEL). The experiment in a line: Inhibition of Staphylococcus aureus sortase A N24 deletion mutant using Abz-LPATG-Dnp as substrate preincubated for 20 mins followed by substrate addition by FRET assay.
Data set [2] concerns Staphylococcus aureus. The experiment in a line: Bactericidal activity against Staphylococcus aureus Newman assessed as reduction in bacterial growth incubated for 16 to 18 hrs. Format: functional. The settings on record: time 16-18 hrs.
The target in data set [3] is T1, Sortase A. The experiment in a line: Inhibition of Staphylococcus aureus Sortase A N24 deletion mutant transpeptidation using IsdA64-323 as substrate preincubated for 20 mins followed by substrate addition and measured after 1.5 hrs by SDS-PAGE analysis.
For data set [4], the system named is Staphylococcus aureus. The data set can be described thus: Antibacterial activity against Staphylococcus aureus USA300 assessed as reduction in bacterial growth at 100 uM incubated for 14 hrs by microplate reader assay. Type of data set: functional, organism-based.
Data set [5] deals with T2, Procathepsin L (Homo sapiens, UniProt P07711). The data set can be described thus: Inhibition of cathepsin L (unknown origin) using Cbz-Phe-Arg-AMC as substrate preincubated for 5 mins followed by substrate addition by fluorescence based assay.
Target sequence in this assay (P07711 whole entry): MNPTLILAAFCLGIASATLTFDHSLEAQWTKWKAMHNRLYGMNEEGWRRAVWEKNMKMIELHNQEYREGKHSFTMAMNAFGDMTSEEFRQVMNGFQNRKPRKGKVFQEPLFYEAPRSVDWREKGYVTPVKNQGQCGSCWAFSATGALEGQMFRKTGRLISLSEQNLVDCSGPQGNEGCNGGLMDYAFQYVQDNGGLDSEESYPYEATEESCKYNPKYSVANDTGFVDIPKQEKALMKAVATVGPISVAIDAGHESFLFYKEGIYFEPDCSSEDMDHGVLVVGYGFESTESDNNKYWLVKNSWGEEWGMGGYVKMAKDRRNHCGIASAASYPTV
Data set [6] deals with Staphylococcus aureus. The data set can be described thus: Antibacterial activity against Staphylococcus aureus Newman infected in Galleria mellonella assessed as increase in larvae survival at 30 mg/kg measured every 24 hrs for 5 days. Type of data set: functional. As to conditions: time 5 day.
For data set [7], the target named is T1, Sortase A. The experiment in a line: Covalent inhibition of Staphylococcus aureus sortase A N24 deletion mutant assessed as inactivation constant incubated for 60 mins.
In data set [8] the test system is Sortase A (Staphylococcus aureus), Q9S446 [UNDEFINED MUTATION]. The experiment in a line: Covalent inhibition of Staphylococcus aureus sortase A N24 deletion mutant assessed as inactivation rate constant incubated for 60 mins.
For data set [9], the system named is Staphylococcus aureus. The data set can be described thus: Antivirulence activity against Staphylococcus aureus Newman assessed as reduction in abundance of Sbi at 6.25 to 100 uM by Western blotting analysis. The settings on record: dose 6.25-100 µM. Format: functional, organism-based. In general terms: Immunoblotting shows a protein as a band on a membrane.

In data set [10] the test system is Streptococcus pyogenes. The data set can be described thus: Covalent inhibition of Streptococcus pyogenes Sortase A N81 deletion mutant assessed as ratio of Kinact to Ki incubated for 60 mins.
Data set [11] deals with Staphylococcus aureus. The experiment in a line: Inhibition of Staphylococcus aureus USA300 biofilm formation incubated for 14 hrs by Crystal violet staining based assay. As to conditions: dose 12.5-100 µM. Type of data set: functional, organism-based.
A short description of data set [12]: Inhibition of Streptococcus pyogenes Sortase A N81 deletion mutant transpeptidation using IsdA64-323 as substrate preincubated for 20 mins followed by substrate addition and measured after 1.5 hrs by SDS-PAGE analysis.
Data set [13] concerns the target T3, Cathepsin B (Homo sapiens, UniProt P07858). The data set can be described thus: Inhibition of cathepsin B (unknown origin) using Cbz-Phe-Arg-AMC as substrate preincubated for 5 mins followed by substrate addition by fluorescence based assay.
The test system of data set [14] is Sortase A (Staphylococcus aureus), Q9S446 [UNDEFINED MUTATION]. The experiment in a line: Covalent inhibition of Staphylococcus aureus sortase A N24 deletion mutant assessed as ratio of Kinact to Ki incubated for 60 mins.
Data set [15] in a line: Toxicity in Galleria mellonella larvae assessed as effect on survival at 60 mg/kg measured after 120 hrs. Type of data set: organism-based. As to conditions: in vivo.
The test system of data set [16] is Staphylococcus aureus. The experiment in a line: Antivirulence activity against Staphylococcus aureus Newman assessed as reduction in abundance of anchored SpA in bacterial envelope by Western blotting analysis. Type of data set: functional, organism-based. As to conditions: dose 6.25-100 µM.
Data set [17] deals with Staphylococcus aureus. The experiment in a line: Inhibition of Staphylococcus aureus Newman biofilm formation incubated for 14 hrs by Crystal violet staining based assay. Format: functional, organism-based. The settings on record: dose 12.5-100 µM.
For data set [18], the system named is Staphylococcus aureus. The experiment in a line: Antibacterial activity against Staphylococcus aureus Newman infected in Galleria mellonella assessed as reduction in melanization at 200 uM pretreated with compound followed by larvae infection measured after 24 hrs. Format: functional, organism-based.
Data set [19] in a line: Covalent inhibition of Streptococcus pyogenes Sortase A N81 deletion mutant assessed as inactivation constant incubated for 60 mins.
Data set [20] addresses T2, Procathepsin L. The experiment in a line: Inhibition of cathepsin L (unknown origin) at 2 uM using Cbz-Phe-Arg-AMC as substrate preincubated for 5 mins followed by substrate addition by fluorescence based assay.
Target sequence in this assay (P07711 114-333 limits assumed): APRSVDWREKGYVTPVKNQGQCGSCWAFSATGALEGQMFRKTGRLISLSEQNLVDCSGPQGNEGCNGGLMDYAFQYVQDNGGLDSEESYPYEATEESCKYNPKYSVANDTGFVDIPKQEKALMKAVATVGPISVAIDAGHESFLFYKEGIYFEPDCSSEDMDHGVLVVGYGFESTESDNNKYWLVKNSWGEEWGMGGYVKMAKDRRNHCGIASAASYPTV
A short description of data set [21]: Toxicity in Galleria mellonella assessed as change in color at 60 mg/kg measured after 120 hrs. Format: organism-based. The settings on record: in vivo.
Data set [22] can be described thus: Toxicity in Galleria mellonella larvae assessed as change in appearance at 60 mg/kg measured after 120 hrs. Type of data set: organism-based. As to conditions: in vivo.
For data set [23], the system named is Sortase A (Staphylococcus aureus), Q9S446 [UNDEFINED MUTATION]. The data set can be described thus: Inhibition of Staphylococcus aureus Sortase A N24 deletion mutant transpeptidation assessed as thermal stabilization by measuring change in melting temperature at 80 uM incubated for 15 mins by Nano-DSF assay.
Data set [24] has as its system Staphylococcus aureus. The data set can be described thus: Antibacterial activity against Staphylococcus aureus USA300 infected in Galleria mellonella assessed as increase in larvae survival at 30 mg/kg measured every 24 hrs for 5 days. As to conditions: time 5 day. Format: functional.
Data set [25] relates to Sortase A (Staphylococcus aureus), Q9S446 [UNDEFINED MUTATION]. The data set can be described thus: Irreversible inhibition of Staphylococcus aureus sortase A N24 deletion mutant preincubated with compound for 1 to 60 mins followed by substrate addition by FRET based assay. The settings on record: time 1-60 min, TDE = time-dependent effect.
Data set [26] concerns Staphylococcus aureus. The experiment in a line: Antibacterial activity against Staphylococcus aureus USA300 infected in Galleria mellonella assessed as reduction in melanization at 200 uM pretreated with compound followed by larvae infection measured after 24 hrs. Format: functional, organism-based.
Data set [27] has as its target T3, Cathepsin B. The data set can be described thus: Inhibition of cathepsin B (unknown origin) at 2 uM using Cbz-Phe-Arg-AMC as substrate preincubated for 5 mins followed by substrate addition by fluorescence based assay.
In data set [28] the test system is Streptococcus pyogenes. The experiment in a line: Covalent inhibition of Streptococcus pyogenes Sortase A N81 deletion mutant assessed as inactivation rate constant incubated for 60 mins.
Data set [29] relates to Staphylococcus aureus. The data set can be described thus: Antibacterial activity against Staphylococcus aureus Newman assessed as reduction in bacterial growth at 100 uM incubated for 14 hrs by microplate reader assay. Type of data set: functional, organism-based.
The test system of data set [30] is Streptococcus pyogenes. The data set can be described thus: Irreversible inhibition of Streptococcus pyogenes Sortase A N81 deletion mutant preincubated with compound for 1 to 60 mins followed by substrate addition by FRET based assay. As to conditions: time 1-60 min, TDE = time-dependent effect.
The test system of data set [31] is Streptococcus pyogenes. The experiment in a line: Inhibition of Streptococcus pyogenes Sortase A N81 deletion mutant transpeptidation assessed as thermal stabilization by measuring change in melting temperature at 80 uM incubated for 15 mins by Nano-DSF assay.

Active and inactive are the calls of the source.

With `O=C1NC(=O)C(=C/C=C/c2ccccc2)C(=O)N1`, the results for the half-maximal inhibitory concentration (IC50) at Sortase A [1] and against Sortase A [3] were 1100 nM and 8200 nM, respectively. The MIC in the data set with Staphylococcus aureus [2] is more than 128 µg/mL.

As for `O=C1NC(=O)C(=C/C=C/c2ccc(OCc3ccccc3)cc2)C(=O)N1`, the figures for the IC50 against Sortase A [1] and against Sortase A [3] were 500 nM and 8900 nM, respectively. Besides, the MIC in the data set with Staphylococcus aureus [2] was more than 128 µg/mL.

Take `O=C1NC(=O)C(=C/C=C/c2ccc(OCC(=O)c3ccco3)cc2)C(=O)N1`: the IC50 against Sortase A [1] turned out to be 800 nM; on Sortase A [3] it was 24600 nM. Moreover, the MIC in the data set on Staphylococcus aureus [2] was more than 128 µg/mL.

Consider `O=C1NC(=O)C(=C/C=C/c2ccc(OCc3ccc(F)cc3)cc2)C(=O)N1`, for which the outcome in the data set on Staphylococcus aureus [4] and with Staphylococcus aureus [29] was inactive. For the same compound, the half-inhibitory concentration (IC50) worked out at 39.7 nM on Procathepsin L [5]; 4900 nM in data set [12]; 36.1 nM against Cathepsin B [13]; 600 nM against Sortase A [1]; 5200 nM against Sortase A [3]. For the same compound, the Activity in the data set on Staphylococcus aureus [6] is 60%; in [15] it was “Non-Toxic”; in [21], “Non-Toxic”; in data set [22], “Non-Toxic”; in the data set with Staphylococcus aureus [24] it was 40%. For the same compound, the Ki at Sortase A [7] is 1600 nM; in data set [19] it was 5400 nM. Further, the Kinact in data set [8] came out at 130 min⁻¹; with Streptococcus pyogenes [28], 1170 min⁻¹. Moreover, the outcome in the data set with Staphylococcus aureus [9], in the data set with Staphylococcus aureus [16], in the data set with Staphylococcus aureus [18] and in the data set with Staphylococcus aureus [26] was Active. Also, the Ratio in the data set with Streptococcus pyogenes [10] was determined as 81.1 µM⁻¹ min⁻¹; in data set [14], 216 µM⁻¹ min⁻¹. Besides, the inhibition result is “Dose-Dependent Effect” with Staphylococcus aureus [11], “Dose-Dependent Effect” with Staphylococcus aureus [17], “Tde” in data set [25] and “Tde” with Streptococcus pyogenes [30]. Besides, the inhibition result at Procathepsin L [20] and at Cathepsin B [27] was “Active” throughout. Also, the results for the ΔTm (in [23]; in the data set with Streptococcus pyogenes [31]) were 4.5 °C and 9.3 °C, respectively. The MIC with Staphylococcus aureus [2] was more than 128 µg/mL.

For `COc1ccc(/C=C/C=C2C(=O)NC(=O)NC2=O)cc1`, the outcome in the data set with Staphylococcus aureus [4] and in the data set on Staphylococcus aureus [29] was inactive. Besides, the Activity is on record as less than 40% in the data set with Staphylococcus aureus [6]; “Non-Toxic” in data set [15]; “Non-Toxic” in data set [21]; “Non-Toxic” in data set [22]; 40% in the data set on Staphylococcus aureus [24]. Further, the result in the data set with Staphylococcus aureus [9], in the data set on Staphylococcus aureus [16], in the data set with Staphylococcus aureus [18] and in the data set on Staphylococcus aureus [26] was Active. For the same compound, the inhibition result was “Dose-Dependent Effect” with Staphylococcus aureus [11], “Dose-Dependent Effect” with Staphylococcus aureus [17], “Tde” in [25] and “Tde” in the data set with Streptococcus pyogenes [30]. The IC50 in data set [12] turned out to be 3400 nM; against Sortase A [1], 1000 nM; against Sortase A [3], 7400 nM. Also, the inhibition result at Procathepsin L [20] and on Cathepsin B [27] was “Active” in each case. In addition, the ΔTm in data set [23] was 4.5 °C; with Streptococcus pyogenes [31], 9.3 °C. The MIC in the data set on Staphylococcus aureus [2] is more than 128 µg/mL.

For the compound `CCCOc1ccc(/C=C/C=C2C(=O)NC(=O)NC2=O)cc1`, the IC50 against Sortase A [1] worked out at 700 nM; at Sortase A [3] it was 8100 nM. Besides, in the data set on Staphylococcus aureus [2], the MIC was more than 128 µg/mL.

As a reminder, the IC50 is the concentration at which inhibition is half-maximal. Read a low IC50 as inhibition by little substance. What is called MIC is the smallest concentration in the dilution series that meets the test's criterion for growth inhibition. As usually defined, the ΔTm is the change in melting temperature against a reference sample.
